Patent US20070270475A1, “4-Methoxy-Pyrrolidine-2-Carboxylic Acid Compounds and Derivatives Thereof as Hepatitis C Virus Inhibitors” (priority 2004, published 2007)

What follows are compounds tested on Huh-7 HCV replicon cells (sub-line 5-15; genotype 1b) (assay: Replicon ELISA cell based assay, genotype 1b (sub-line 5-15)). Details: Hepatitis C virus, Huh-7 genotype 1b replicon sub-line 5-15, 72 hours.
Parameters: species or system HCV genotype 1b
Protocol: Replicon ELISA Cell Based Assay
100 μL of medium containing 10% FCS were added to each well of clear, flat-bottomed 96 well microplates, excepting wells in the top row. Test compound was diluted in assay medium to twice the final required starting concentration from a 40 mM stock solution in DMSO. 200 μL of the starting dilution were introduced into two wells each in the top row and doubling dilutions made down the plate by the sequential transfer of 100 μL aliquots with thorough mixing in the wells; the final 100 μL were discarded. The two bottom rows were not used for compound dilutions. Huh-7 HCV replicon cell monolayers nearing confluency were stripped from growth flasks with versene-trypsin solution and the cells were resuspended in assay medium at either 2×10^5 cells/mL (sub-line 5-15; genotype 1b; Lohmann, V., Korner, F., Koch, J-O., Herian, U., Thielmann, L. and Bartenschlager, R., 1999, Science, 285, pp 110-113) or at 3×10^5 cells/mL (genotype 1a; Gu, B., Gates, A.T., Isken, O., Behrens, S. E. and Sarisky, R. T., J. Virol., 2003, 77, 5352-5359). 100 μL of cell suspension were added to all wells and the plates incubated at 37° C. for 72 hours in a 5% CO2 atmosphere.
Following incubation, the assay medium was aspirated from the plates. The cell sheets were washed by gentle immersion in phosphate buffered saline (PBS), which was then aspirated off, and fixed with acetone:methanol (1:1) for 5 minutes. Following a further wash with PBS, 100 μL of ELISA diluent (PBS+0.05% v/v Tween 20+2% w/v skimmed milk powder) were added to all wells and the plates incubated at 37° C. for 30 minutes on an orbital platform. The diluent was removed and each well then received 50 μL of a 1/200 dilution of anti-HCV specific, murine, monoclonal antibody (either Virostat #1872 or #1877), except for wells in one of the compound-free control rows which received diluent alone to act as negative controls. The plates were incubated at 37° C. for 2 hours and washed 3 times with PBS/0.05% Tween 20, then 50 μL of horseradish peroxidase conjugated, anti-mouse, rabbit polyclonal serum (Dako #P0260), diluted 1/1000, were added to all wells. The plates were incubated for a further hour, the antibody removed and the cell sheets washed 5 times with PBS/Tween and blotted dry. The assay was developed by the addition of 50 μL of ortho-phenylenediamine/peroxidase substrate in urea/citrate buffer (SigmaFast, Sigma #P-9187) to each well, and colour allowed to develop for up to 15 minutes. The reaction was stopped by the addition of 25 μL per well of 2 M sulphuric acid and the plates were read at 490 nm on a Fluostar Optima spectrophotometer.
The substrate solution was removed and the plates were washed in tap water, blotted dry and the cells stained with 5% carbol fuchsin in water for 30 minutes. The stain was discarded and the cell sheets washed, dried and examined microscopically to assess cytotoxicity.
The absorbance values from all compound-free wells that had received both primary and secondary antibodies were averaged to obtain a positive control value. The mean absorbance value from the compound-free wells that had not received the primary antibody was used to provide the negative (background) control value. The readings from the duplicate wells at each compound concentration were averaged and, after the subtraction of the mean background from all values, were expressed as a percentage of the positive control signal. The quantifiable and specific reduction of expressed protein detected by the ELISA in the presence of a drug can be used as a measure of replicon inhibition. GraFit software (Erithacus Software Ltd.) was used to plot the curve of percentage inhibition against compound concentration and derive the 50% inhibitory concentration (IC50) for the compound.

Structure (SMILES)	IC50
COC[C@H]1C[C@@](CC(C)C)(C(=O)O)N(C(=O)c2ccc(C(C)(C)C)c(OC)c2)[C@H]1c1nccs1 [Compound B, (2S,4S,5R)-2-isobutyl-1-(3-methoxy-4-tert-butylbenzoyl)-4-methoxymethyl-5-(1,3-thiazol-2-yl)pyrrolidine-2-carboxylic acid, reference compound]	150 to 10000 nM
COC[C@H]1C[C@@](Cn2cccn2)(C(=O)O)N(C(=O)c2ccc(C(C)(C)C)c(OC)c2)[C@H]1c1nccs1 (racemic) [Example 6, rel-(2R,4S,5R)-1-(3-Methoxy-4-tert-butylbenzoyl)-4-(methoxymethyl)-2-(1H-pyrazol-1-ylmethyl)-5-(1,3-thiazol-2-yl)pyrrolidine-2-carboxylic acid]	< 150 nM
COC[C@H]1C[C@@](Cc2cscn2)(C(=O)O)N(C(=O)c2ccc(C(C)(C)C)c(OC)c2)[C@H]1c1nccs1 (single isomer, unassigned; enantiomer a) [Example 12]	< 150 nM
COC[C@H]1C[C@@](Cn2cccn2)(C(=O)O)N(C(=O)c2ccc(C(C)(C)C)c(OC)c2)[C@H]1c1ncc(C)s1 (racemic) [Example 10, rel-(2R,4S,5R)-1-(3-Methoxy-4-tert-butylbenzoyl)-4-(methoxymethyl)-5-(5-methyl-1,3-thiazol-2-yl)-2-(1H-pyrazol-1-ylmethyl)pyrrolidine-2-carboxylic acid]	< 150 nM
COC[C@H]1C[C@@](Cc2nccs2)(C(=O)O)N(C(=O)c2ccc(C(C)(C)C)c(OC)c2)[C@H]1c1ncc(C)s1 (racemic) [Example 8, rel-(2R,4S,5R)-1-(3-Methoxy-4-tert-butylbenzoyl)-4-(methoxymethyl)-5-(5-methyl-1,3-thiazol-2-yl)-2-(1,3-thiazol-2-ylmethyl)pyrrolidine-2-carboxylic acid]	150 to 10000 nM
COC[C@H]1C[C@@](Cc2cscn2)(C(=O)O)N(C(=O)c2ccc(C(C)(C)C)c(OC)c2)[C@H]1c1nccs1 (racemic) [Example 3, rel-(2R,4S,5R)-1-(3-Methoxy-4-tert-butylbenzoyl)-4-(methoxymethyl)-5-(1,3-thiazol-2-yl)-2-(1,3-thiazol-4-ylmethyl)pyrrolidine-2-carboxylic acid]	< 150 nM
COC[C@H]1C[C@@](Cc2ccsn2)(C(=O)O)N(C(=O)c2ccc(C(C)(C)C)c(OC)c2)[C@H]1c1nccs1 (single isomer, unassigned; enantiomer a) [Example 5]	< 150 nM
COC[C@H]1C[C@@](Cn2cccn2)(C(=O)O)N(C(=O)c2ccc(C(C)(C)C)c(OC)c2)[C@H]1c1ncc(C)s1 (single isomer, unassigned; enantiomer a) [Example 11]	< 150 nM
COC[C@H]1C[C@@](CC(C)C)(C(=O)O)N(C(=O)c2ccc(C(C)(C)C)c(OC)c2)[C@H]1c1nccs1 (racemic) [Compound A, rel-(2S,4S,5R)-2-isobutyl-1-(3-methoxy-4-tert-butylbenzoyl)-4-methoxymethyl-5-(1,3-thiazol-2-yl)pyrrolidine-2-carboxylic acid, reference compound]	150 to 10000 nM
COC[C@H]1C[C@@](Cc2cscn2)(C(=O)O)N(C(=O)c2ccc(C(C)(C)C)c(OC)c2)[C@H]1c1ncc(C)s1 (racemic) [Example 1, rel-(2R,4S,5R)-1-(3-Methoxy-4-tert-butylbenzoyl)-4-(methoxymethyl)-5-(5-methyl-1,3-thiazol-2-yl)-2-(1,3-thiazol-4-ylmethyl)pyrrolidine-2-carboxylic acid]	< 150 nM
COC[C@H]1C[C@@](Cc2ccccc2)(C(=O)O)N(C(=O)c2ccc(C(C)(C)C)c(OC)c2)[C@H]1c1nccs1 (racemic) [Compound E, rel-(2R,4S,5R)-2-benzyl-1-(3-methoxy-4-tert-butylbenzoyl)-4-methoxymethyl-5-(1,3-thiazol-2-yl)-pyrrolidine-2-carboxylic acid, reference compound]	150 to 10000 nM
COC[C@H]1C[C@@](Cc2ccsn2)(C(=O)O)N(C(=O)c2ccc(C(C)(C)C)c(OC)c2)[C@H]1c1ncc(C)s1 (racemic) [Example 9, rel-(2R,4S,5R)-1-(3-Methoxy-4-tert-butylbenzoyl)-4-(methoxymethyl)-5-(5-methyl-1,3-thiazol-2-yl)-2-(1,2-thiazol-3-ylmethyl)pyrrolidine-2-carboxylic acid]	< 150 nM
COC[C@H]1C[C@@](Cn2cccn2)(C(=O)O)N(C(=O)c2ccc(C(C)(C)C)c(OC)c2)[C@H]1c1nccs1 (single isomer, unassigned) [Example 7]	< 150 nM
COCC1CC(CC(C)C)(C(=O)O)N(C(=O)c2ccc(C(C)(C)C)c(OC)c2)C1c1ncc(C)s1 (single isomer, unassigned; enantiomer a) [Compound D, reference compound]	150 to 10000 nM
COC[C@H]1C[C@@](Cc2cscn2)(C(=O)O)N(C(=O)c2ccc(C(C)(C)C)c(OC)c2)[C@H]1c1ncc(C)s1 (single isomer, unassigned; enantiomer a) [Example 2]	< 150 nM
COC[C@H]1C[C@@](Cc2ccsn2)(C(=O)O)N(C(=O)c2ccc(C(C)(C)C)c(OC)c2)[C@H]1c1nccs1 (racemic) [Example 4, rel-(2R,4S,5R)-1-(3-Methoxy-4-tert-butylbenzoyl)-4-(methoxymethyl)-5-(1,3-thiazol-2-yl)-2-(1,2-thiazol-3-ylmethyl)pyrrolidine-2-carboxylic acid]	< 150 nM
